Here are results for 11 compounds from paper PMC6411751, “Use of machine learning to identify novel, behaviorally active antagonists of the insect odorant receptor co-receptor (Orco) subunit” (Scientific Reports, 2019).

Read-outs that look alike come from different tables or passages of the source. Where only a bound is given, the exact number is not on record here.

Assay [1] concerns the target T1, Agam\Orco (Anopheles gambiae, UniProt Q7QCC7).
T1 construct: expressed in transfected cells; host or cells: Xenopus laevis oocytes injected with capped cRNA (plasmid pT7TS, gift of L. Zwiebel)
T1 sequence (Q7QCC7 1-478): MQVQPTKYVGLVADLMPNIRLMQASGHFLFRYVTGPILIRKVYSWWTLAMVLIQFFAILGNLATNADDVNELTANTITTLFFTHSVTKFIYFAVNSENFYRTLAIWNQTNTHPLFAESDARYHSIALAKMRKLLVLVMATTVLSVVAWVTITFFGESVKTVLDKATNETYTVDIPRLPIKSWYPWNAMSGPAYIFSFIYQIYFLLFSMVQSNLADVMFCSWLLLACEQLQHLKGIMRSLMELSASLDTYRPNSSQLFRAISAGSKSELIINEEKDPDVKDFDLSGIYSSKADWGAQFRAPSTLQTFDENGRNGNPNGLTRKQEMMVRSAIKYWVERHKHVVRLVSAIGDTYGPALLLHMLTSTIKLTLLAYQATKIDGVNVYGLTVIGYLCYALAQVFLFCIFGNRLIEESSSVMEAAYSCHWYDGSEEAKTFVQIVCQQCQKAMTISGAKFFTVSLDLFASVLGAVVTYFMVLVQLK
The experiment in a line: cell-based. Format: cell-based. As for the experimental part:
A 2 hr incubation with collagenase B (Roche) was used to remove follicle cells from oocytes. Capped cRNA for Agam\Orco was synthesized using mMessage mMachine kits (Thermo Fisher Scientific). 25 ng of cRNA was injected into stage V–VI oocytes, followed by a 2–5 day incubation at 18 °C in Barth’s saline (in mM: 88 NaCl, 1 KCl, 2.4 NaHCO3, 0.3 CaNO3, 0.41 CaCl2, 0.82 MgSO4, 15 HEPES, pH 7.4, and 0.05 g/L tetracycline, 0.05 g/L ciprofloxacin, 0.1 g/L amikacin) prior to electrophysiological recordings.
(§1) An automated parallel electrophysiology system (OpusExpress 6000 A, Molecular Devices) was used to record Orco agonist (OLC12) or odorant induced currents under two-electrode voltage clamp. Oocytes were perfused with ND96 (in mM: 96 NaCl, 2 KCl, 1 CaCl2, 1 MgCl2, 5 HEPES, pH 7.4). DMSO was used to prepare 1 M or 100 mM stock solutions of test compounds, which were then diluted in ND96 on the day of the experiment. Compounds were applied at a flow rate of 1.0 mL/min, with extensive washing in ND96 at 4.6 mL/min between applications. Micropipettes with resistances of 0.2–2.0 MΩ were filled with 3 M KCl. The holding potential was −70 mV. Current responses were filtered (4-pole, Bessel, low pass) at 20 Hz (−3 db) and sampled at 100 Hz. OpusXpress 1.1 software (Molecular Devices) was used to capture and store current responses.
To measure antagonist activity at Orco, Agam\Orco was activated by the Orco agonist OLC12[34]. […] The current response to OLC12 in the presence of antagonist candidate was compared to the mean of the preceding two responses to OLC12 alone and presented as a percentage[34],[35]. This value was then normalized to the value obtained when the assay was run in the absence of antagonist candidate (sham).
During development of the training panel (Fig. 2, Tables S1 and S2), all compounds not previously known to be Orco antagonists were tested at a concentration of 3 mM. […] Concentration-inhibition curves were constructed for all compounds eliciting >20 percent inhibition at 3 mM. The same concentration and criteria were used during screening of predicted actives (Fig. 4D) and predicted inactives (Fig. 5C).
Clampfit 9.1 software (Molecular Devices) was used to perform initial analysis of electrophysiological data. Prism 7 (Graphpad) was used for curve fitting. Concentration-inhibition data were fit to the equation: I = Imax/(1 + (X/IC50)^n) where I represents the current response at a given concentration of inhibitor, X; Imax is the maximal response in the absence of inhibitor; IC50 is the concentration of inhibitor present that allows a half maximal response from OLC12; n is the apparent Hill coefficient.

Assay [2] concerns D. melanogaster larvae. Briefly: Larval chemotaxis assay (attraction to ethyl acetate). Format: in vivo, Drosophila melanogaster. As to conditions: 10 µL of EA diluted 1:10^−6 in mineral oil vs mineral oil alone; mean ± SEM. As for the experimental part:
We have previously provided a detailed description of these methods. Briefly, Canton-S (CS) flies were used as wild type (wt). The experimental chamber was a 100 × 15 mm polystyrene Petri dish (VWR) with 20 mL of 1.1% agarose coating the bottom. In this assay, 50 third-instar larvae were placed inside a “starting circle” at the center of the plate (the circle was drawn on the outside bottom of the plate). A line was also drawn that divided the plate in half. Small filter paper discs (d = 6 mm, Whatman Cellulose Filter Paper, # 1030 023) were placed on opposite sides of the plate (see Fig. 8A). Onto each filter paper disc was placed 10 μL of solution, containing either vehicle of dilution (mineral oil), odorant attractant (EA, diluted in mineral oil) or an Orco antagonist compound (diluted in mineral oil). The sides of the plate on which the compounds or vehicle were placed were alternated from experiment to experiment.
In order to test Orco antagonists for the ability to affect the chemotaxis assay, a large (d = 9 cm) filter paper (Whatman Filter Paper # D00161-S) was adhered with double-sided tape to the inside of the Petri dish lid. This allowed the larvae to be exposed to Orco antagonists in an airborne context. For light repulsion experiments, we used a Zeiss CL6000 LED light source at 76% intensity. Following the 5 min migratory period, plates were photographed, coded and then blind counted. Any larvae still within the starting circle or touching the center line were excluded from the analysis. A Response Index (RI) was calculated as RI = (S − C)/(S + C), where S is the number of larvae on the stimulus (EA) side and C is the number of larvae on the control (mineral oil) side. RI = 1 would indicate complete attraction, RI = −1 would indicate complete repulsion, and RI = 0 would indicate no preference. Statistical significance was assessed using a one-way analysis of the variance followed by Dunnett’s’s post-test.

The test system of assay [3] is Agam\ORs. The arrangement: method as in ref 2-5 (a number printed in a supplementary file, which may have a reference list of its own: not looked up in the article's list). To be noted: cited from earlier work.
Assay [4] relates to Dmel\Or83c. More on the design: method as in ref 1 Münch, D., Galizia, C.G. DoOR 2.0 (2016). As to conditions: ref 1 Münch, D., Galizia, C.G. DoOR 2.0 (2016); cited from earlier work.
Assay [5] deals with Dmel\Or71a. The arrangement: method as in ref 1 Münch, D., Galizia, C.G. DoOR 2.0 (2016). As to conditions: ref 1 Münch, D., Galizia, C.G. DoOR 2.0 (2016); cited from earlier work.
Assay [6] has as its system Cqui\Or21 + Cqui\Orco. Briefly: Inhibition of heteromeric OR in oocytes (3-methylindole or OLC12 activation). As to conditions: Orco agonist activation of Cqui\Or21 + Cqui\Orco. Format: cell-based, Culex quinquefasciatus. The method, then:
as §1
(§2) To measure the ability of Orco antagonists to inhibit odorant activation, oocytes expressing heteromeric ORs (Orco + ORX) were exposed to a 30 sec application of odorant followed by a 20 min wash. Oocytes were then exposed to a 90 sec application of Orco antagonist, immediately followed by a 30 sec co-application of Orco antagonist and odorant. The current response to odorant in the presence of Orco antagonist was compared to the preceding response to odorant alone and represented as a percentage. This value was then normalized to the value obtained when the assay was run in the absence of antagonist (sham).
(§3) Figure S3. Effects of Orco antagonists on heteromeric ORs. […]
(§4) heteromeric complexes of odorant specificity subunits and Orco. The Orco antagonists tested were 3-isopropyl-6-methyl-catechol (3 I6 MC), a potent compound from the input training set, and two compounds id e ntified in Fig u re 4 an d Ta b le 1 : 2-tert-butyl-6-methylphenol (B MP ) and linalyl formate (LF) . These compounds were tested for antagonist activity against odorant activation of three ORs from Anopheles gambiae (Agam\Or28 + Agam\Orco, Agam\Or39 + A ga m\Orco, Agam\Or65 + A ga m\Orco), o ne O R fro m Culex quinquefasciatus, the southern house mosquito (Cq u i\Or21 + Cqui\Orco) an d on e O R f ro m Drosophila melanogaster (Dme l\Or35a + Dmel\Orco). Each OR was activated by its cognate odorant agonist applied at an approximate EC50 concentration. […]
(§5) SEM (n = 4). […] Statistical significance of the data in each panel was assessed by one-way analysis of variance followed by Dunnett’s multiple comparison test using the pre-normalized values for each antagonist compared to the values obtained in the sham recordings (*, p < 0 .0 5; **, p < 0. 01; ***, p < 0 . 00 1 ).

Assay [7] addresses T2, Dmel\Or35a + Dmel\Orco (Drosophila melanogaster, UniProt Q9VNB5).
T2 construct: expressed in transfected cells; host or cells: Xenopus laevis oocytes
T2 sequence (Q9VNB5 1-486): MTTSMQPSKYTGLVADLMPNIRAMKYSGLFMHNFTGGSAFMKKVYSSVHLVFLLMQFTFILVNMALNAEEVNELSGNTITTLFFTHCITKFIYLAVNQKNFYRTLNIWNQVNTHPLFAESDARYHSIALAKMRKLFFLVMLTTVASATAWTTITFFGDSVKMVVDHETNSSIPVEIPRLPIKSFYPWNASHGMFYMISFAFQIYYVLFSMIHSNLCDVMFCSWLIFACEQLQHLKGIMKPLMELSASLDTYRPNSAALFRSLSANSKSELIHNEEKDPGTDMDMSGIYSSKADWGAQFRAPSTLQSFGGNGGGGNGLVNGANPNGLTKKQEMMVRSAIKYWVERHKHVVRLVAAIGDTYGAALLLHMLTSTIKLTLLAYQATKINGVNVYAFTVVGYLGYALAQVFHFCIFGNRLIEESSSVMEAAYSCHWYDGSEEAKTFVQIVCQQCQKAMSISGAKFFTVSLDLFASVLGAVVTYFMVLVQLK
T2 sequence (Q9V3Q2 1-409 partner): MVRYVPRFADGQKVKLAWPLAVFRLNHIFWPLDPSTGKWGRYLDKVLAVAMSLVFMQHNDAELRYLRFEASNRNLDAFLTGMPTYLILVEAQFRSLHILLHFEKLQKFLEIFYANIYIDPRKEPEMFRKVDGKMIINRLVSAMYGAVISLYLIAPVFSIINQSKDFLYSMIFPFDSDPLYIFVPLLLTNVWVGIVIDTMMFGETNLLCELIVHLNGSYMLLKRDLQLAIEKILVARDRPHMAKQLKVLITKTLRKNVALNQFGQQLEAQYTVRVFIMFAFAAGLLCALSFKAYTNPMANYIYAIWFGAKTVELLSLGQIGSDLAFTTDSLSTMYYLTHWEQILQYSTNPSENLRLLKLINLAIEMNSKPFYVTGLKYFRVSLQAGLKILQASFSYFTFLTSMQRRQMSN
The experiment in a line: Inhibition of heteromeric OR in oocytes (hexanol or OLC12 activation). Format: cell-based. To be noted: Orco agonist activation of Dmel\Or35a + Dmel\Orco. The method, then: as §1, §2, §3, §4, §5

The subject of assay [8] is Dmel\Or19a. More on the design: method as in ref 1 Münch, D., Galizia, C.G. DoOR 2.0 (2016). To be noted: ref 1 Münch, D., Galizia, C.G. DoOR 2.0 (2016); cited from earlier work.
The test system of assay [9] is Dmel\Or85b. More on the design: method as in ref 1 Münch, D., Galizia, C.G. DoOR 2.0 (2016). As to conditions: ref 1 Münch, D., Galizia, C.G. DoOR 2.0 (2016); cited from earlier work.
Assay [10] has as its system Dmel\Or69a. The arrangement: method as in ref 1 Münch, D., Galizia, C.G. DoOR 2.0 (2016). To be noted: ref 1 Münch, D., Galizia, C.G. DoOR 2.0 (2016); cited from earlier work.
The test system of assay [11] is Dmel\Or67a. The arrangement: method as in ref 1 Münch, D., Galizia, C.G. DoOR 2.0 (2016). As to conditions: ref 1 Münch, D., Galizia, C.G. DoOR 2.0 (2016); cited from earlier work.

The inhibition is the share of the control response that was lost under treatment. As to `CCOC(C)=O` [ethyl acetate, reference compound], in assay [1] (read-out: inhibition of Agam\Orco (OLC12 response) at 3 mM, 3 mM compound, 30 µM OLC12), the inhibition at 3000 µM is not above 20%. Further, the “response index (RI)” value in assay [2] was found to be 0.76 ± 0.08.

`CC(C)=CCC[C@@H](C)CC=O` [citronellal]: in assay [3] (Or5, Or12, Or15, Or25, Or45, Or73), the “activity at Agam\ORs (basal activity)” value is “inhibition of basal”. Besides, in [3] (Or30, Or31, Or48, Or50, Or75), the “activity at Agam\ORs” value was “activation”. The “scaled response from DoOR (max = 1.0)” value in [4] was 0.092. Take `CC(C)=CCCC(C)=CCCC(C)=CC=O` [farnesal]: the “scaled response from DoOR (max = 1.0)” value in [4] was 0.046. For `CC(O)CCc1ccccc1` (stereo not drawn) [4-phenyl-2-butanol], the “scaled response from DoOR (max = 1.0)” value in assay [5] is given as 0.063.

Turning to `CCn1c(SCC(=O)Nc2ccc(C(C)C)cc2)nnc1-c1ccncc1` [OLC12, 2-((4-Ethyl-5-(4-pyridinyl)-4H-1,2,4-triazole-3-yl)sulfanyl)-N-(4-isopropylphenyl)acetamide, reference compound], the “approximate EC25” value in assay [6] was approximately 3 µM; in assay [7], approximately 10 µM.

`Cc1ccc(C(C)C)cc1` [p-cymene]: the “scaled response from DoOR (max = 1.0)” value in assay [5] is given as 0.063. Regarding `CC(C)c1ccc(C=O)cc1` [4-isopropylbenzaldehyde], the “scaled response from DoOR (max = 1.0)” value in [8] was 0.351; in assay [9], 0.222. As to `C=Cc1ccc(O)cc1` [4-hydroxystyrene], in assay [5], the “scaled response from DoOR (max = 1.0)” value is 0.131. In general, IC50 refers to the concentration that gives 50% inhibition. `O=C/C=C/c1ccccc1` [trans-cinnamaldehyde] showed a half-inhibitory concentration (IC50) in assay [1] of 1870 ± 94 µM. Also, the “scaled response from DoOR (max = 1.0)” value in [8] is reported as 0.112. For `CCc1ccccc1O` [2-ethylphenol], it took 261 ± 14 µM to reach half-maximal inhibition in [1] (IC50). The “loss of potency relative to BMP” value in assay [1] (Agam\Orco IC50 compared with BMP) stood at 5.5 fold. Further, in assay [3] (Or2, Or9, Or10, Or11, Or14, Or18, Or20, Or38, Or41, Or50, Or57), the “activity at Agam\ORs” value was “activation”. In [10], the “scaled response from DoOR (max = 1.0)” value is given as 0.356. For the compound `CCOC(=O)/C=C/c1ccccc1` [ethyl-trans-cinnamate], the IC50 in assay [1] (Table S1, training actives, Agam\Orco activated by 30 µM OLC12, mean ± SEM (n = 3-8), read-out: IC50) turned out to be 134 ± 16 µM. Further, in [11], the “scaled response from DoOR (max = 1.0)” value was 0.143.
